# According to ChEMBL document CHEMBL5385847, “Design, synthesis and biological evaluation of a new class of 7H-pyrrolo[2,3-d]pyrimidine derivatives as Mps1 inhibitors for the treatment of breast cancer” (Eur J Med Chem, 2023):
# Activity calls are given as the source filed them. No cut-off for these calls is given here.
# How the values were obtained:
# 4T1 [1] = experiment: Antiproliferative activity against 4T1 cells assessed as inhibition of cell viability incubated for 24 to 72 hrs by MTT assay; assay type: functional, cell-based; settings: Mus musculus, dose <= 10.0 µM, time 24-72 hrs
# MCF7 [2] = experiment: Induction of apoptosis in human MCF7 cells assessed as late apoptotic cells at 0.5 uM incubated for 48 hrs by Annexin V-FITC/PI staining based flow cytometry (reference value: 0.63 %); assay type: functional
# 4T1 [3] = experiment: Induction of apoptosis in 4T1 cells assessed as late apoptotic cells at 1 uM incubated for 48 hrs by Annexin V-FITC/PI staining based flow cytometry (reference value: 1.73 %); assay type: functional, Mus musculus
# OVCAR-3 = experiment: Antiproliferative activity against human OVCAR-3 cells assessed as inhibition of cell viability upto 10 uM incubated for 72 hrs by MTT assay; assay type: functional, cell-based
# [4] = tested on: Tyrosine-protein kinase ABL1 (Homo sapiens), P00519 [T315I]; experiment: Inhibition of human Abl T315I mutant at 1 uM by KINOMEscan assay relative to control
# 4T1 [5] = experiment: Antiproliferative activity against 4T1 cells upto 5 uM measured after 14 days by colony formation assay; assay type: functional, cell-based; settings: Mus musculus, time 14.0 day
# [6] = Toxicity in BALB/C mouse xenografted with mouse 4T1-Luc cells assessed as histological change in lung at 30 to 60 mg/kg, po qd treated for 15 days by H and E staining based analysis; assay type: organism-based; settings: in vivo, 360 h, dose 30-60 mg/kg, time 15 day
# MCF7 [7] = experiment: Induction of cell cycle arrest in human MCF7 cells at G2/M phase incubated for 24 hrs by Annexin V/PI staining based flow cytometry; assay type: functional; settings: dose <= 5.0 µM
# MCF7 [8] = experiment: Antiproliferative activity against human MCF7 cells assessed as inhibition of cell viability by MTT assay; assay type: functional, cell-based
# [9] = molecular target: Insulin-like growth factor 1 receptor (Homo sapiens) (UniProt P08069); experiment: Inhibition of human IGF-1R at 0.1 uM by KINOMEscan assay relative to control
# Insulin-like growth factor 1 receptor (Homo sapiens), sequence (P08069 31-736 limits assumed): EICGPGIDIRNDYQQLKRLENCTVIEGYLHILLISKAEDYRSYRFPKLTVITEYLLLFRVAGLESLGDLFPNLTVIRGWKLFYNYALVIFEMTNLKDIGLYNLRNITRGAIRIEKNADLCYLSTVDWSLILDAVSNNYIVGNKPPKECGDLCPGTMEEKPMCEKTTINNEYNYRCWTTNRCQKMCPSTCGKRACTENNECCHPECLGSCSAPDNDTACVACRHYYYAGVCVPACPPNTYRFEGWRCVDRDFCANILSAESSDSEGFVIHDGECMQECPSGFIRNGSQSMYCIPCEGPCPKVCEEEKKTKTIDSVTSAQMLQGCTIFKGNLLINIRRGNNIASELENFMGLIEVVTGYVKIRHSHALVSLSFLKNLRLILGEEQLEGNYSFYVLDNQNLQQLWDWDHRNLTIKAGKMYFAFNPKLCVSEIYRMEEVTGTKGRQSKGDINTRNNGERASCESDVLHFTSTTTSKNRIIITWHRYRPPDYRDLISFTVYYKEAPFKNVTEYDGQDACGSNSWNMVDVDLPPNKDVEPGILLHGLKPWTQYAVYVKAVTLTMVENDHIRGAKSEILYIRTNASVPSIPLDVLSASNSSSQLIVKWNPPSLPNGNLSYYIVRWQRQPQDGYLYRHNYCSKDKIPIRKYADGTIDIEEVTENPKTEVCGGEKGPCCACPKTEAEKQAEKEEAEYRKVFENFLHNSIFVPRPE
# Insulin-like growth factor 1 receptor (Homo sapiens), sequence (P08069 741-1367 limits assumed): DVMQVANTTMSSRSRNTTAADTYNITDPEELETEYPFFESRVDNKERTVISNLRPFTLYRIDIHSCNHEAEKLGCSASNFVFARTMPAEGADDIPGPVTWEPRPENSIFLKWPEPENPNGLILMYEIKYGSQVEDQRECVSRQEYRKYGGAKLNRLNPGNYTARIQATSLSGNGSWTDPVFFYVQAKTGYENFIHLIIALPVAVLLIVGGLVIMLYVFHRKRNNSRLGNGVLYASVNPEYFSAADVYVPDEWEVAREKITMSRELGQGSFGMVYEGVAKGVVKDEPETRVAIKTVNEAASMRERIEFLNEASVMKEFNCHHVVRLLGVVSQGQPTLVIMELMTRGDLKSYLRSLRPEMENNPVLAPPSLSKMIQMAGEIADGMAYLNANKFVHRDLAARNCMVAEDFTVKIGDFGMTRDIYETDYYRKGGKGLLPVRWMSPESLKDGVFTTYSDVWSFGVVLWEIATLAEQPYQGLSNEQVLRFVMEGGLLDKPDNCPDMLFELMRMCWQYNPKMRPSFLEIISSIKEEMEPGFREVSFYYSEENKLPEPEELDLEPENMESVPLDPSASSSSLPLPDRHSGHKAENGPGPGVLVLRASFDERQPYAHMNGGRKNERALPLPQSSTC
# [10] = molecular target: Receptor-type tyrosine-protein kinase FLT3 (Homo sapiens) (UniProt P36888); experiment: Inhibition of human FLT3 at 1 uM by KINOMEscan assay relative to control
# Receptor-type tyrosine-protein kinase FLT3 (Homo sapiens), sequence (P36888 whole entry): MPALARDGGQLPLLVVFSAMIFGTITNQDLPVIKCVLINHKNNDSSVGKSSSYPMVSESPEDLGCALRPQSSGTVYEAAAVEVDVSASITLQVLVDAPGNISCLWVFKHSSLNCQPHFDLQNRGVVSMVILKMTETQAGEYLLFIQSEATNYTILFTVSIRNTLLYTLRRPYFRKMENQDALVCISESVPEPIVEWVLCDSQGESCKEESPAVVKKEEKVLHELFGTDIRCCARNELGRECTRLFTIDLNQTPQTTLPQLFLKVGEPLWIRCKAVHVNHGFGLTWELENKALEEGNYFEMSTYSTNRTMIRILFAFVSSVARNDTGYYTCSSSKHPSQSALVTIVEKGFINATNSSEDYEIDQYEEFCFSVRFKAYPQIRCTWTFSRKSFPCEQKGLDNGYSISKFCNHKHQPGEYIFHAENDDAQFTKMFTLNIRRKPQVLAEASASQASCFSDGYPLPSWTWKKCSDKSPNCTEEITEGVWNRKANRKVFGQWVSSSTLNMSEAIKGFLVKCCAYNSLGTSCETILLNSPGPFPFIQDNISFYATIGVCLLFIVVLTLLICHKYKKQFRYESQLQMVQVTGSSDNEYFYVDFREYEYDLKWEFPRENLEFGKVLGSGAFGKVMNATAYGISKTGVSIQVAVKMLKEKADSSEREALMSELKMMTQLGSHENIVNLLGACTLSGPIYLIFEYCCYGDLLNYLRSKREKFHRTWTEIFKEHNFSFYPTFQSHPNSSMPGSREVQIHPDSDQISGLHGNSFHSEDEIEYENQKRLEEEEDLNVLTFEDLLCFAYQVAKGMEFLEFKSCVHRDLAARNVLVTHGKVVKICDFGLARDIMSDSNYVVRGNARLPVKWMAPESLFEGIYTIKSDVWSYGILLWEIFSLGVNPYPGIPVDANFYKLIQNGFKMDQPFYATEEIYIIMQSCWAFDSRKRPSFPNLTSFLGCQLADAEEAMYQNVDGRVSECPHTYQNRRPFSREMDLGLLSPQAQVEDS
# [11] = molecular target: Insulin-like growth factor 1 receptor (Homo sapiens) (UniProt P08069); experiment: Inhibition of human IGF-1R at 1 uM by KINOMEscan assay relative to control
# MCF7 [12] = experiment: Induction of apoptosis in human MCF7 cells assessed as increase in cleaved PARP level upto 3 uM incubated for 48 hrs by Western blot analysis; assay type: functional, cell-based
# 4T1 [13] = experiment: Induction of apoptosis in 4T1 cells assessed as late apoptotic cells at 0.5 uM incubated for 48 hrs by Annexin V-FITC/PI staining based flow cytometry (reference value: 1.73 %); assay type: functional, Mus musculus
# [14] = molecular target: T1, Dual specificity protein kinase TTK (Homo sapiens) (UniProt P33981); experiment: Inhibition of human Mps1 at 1 uM by KINOMEscan assay relative to control
# T1 sequence (whole entry): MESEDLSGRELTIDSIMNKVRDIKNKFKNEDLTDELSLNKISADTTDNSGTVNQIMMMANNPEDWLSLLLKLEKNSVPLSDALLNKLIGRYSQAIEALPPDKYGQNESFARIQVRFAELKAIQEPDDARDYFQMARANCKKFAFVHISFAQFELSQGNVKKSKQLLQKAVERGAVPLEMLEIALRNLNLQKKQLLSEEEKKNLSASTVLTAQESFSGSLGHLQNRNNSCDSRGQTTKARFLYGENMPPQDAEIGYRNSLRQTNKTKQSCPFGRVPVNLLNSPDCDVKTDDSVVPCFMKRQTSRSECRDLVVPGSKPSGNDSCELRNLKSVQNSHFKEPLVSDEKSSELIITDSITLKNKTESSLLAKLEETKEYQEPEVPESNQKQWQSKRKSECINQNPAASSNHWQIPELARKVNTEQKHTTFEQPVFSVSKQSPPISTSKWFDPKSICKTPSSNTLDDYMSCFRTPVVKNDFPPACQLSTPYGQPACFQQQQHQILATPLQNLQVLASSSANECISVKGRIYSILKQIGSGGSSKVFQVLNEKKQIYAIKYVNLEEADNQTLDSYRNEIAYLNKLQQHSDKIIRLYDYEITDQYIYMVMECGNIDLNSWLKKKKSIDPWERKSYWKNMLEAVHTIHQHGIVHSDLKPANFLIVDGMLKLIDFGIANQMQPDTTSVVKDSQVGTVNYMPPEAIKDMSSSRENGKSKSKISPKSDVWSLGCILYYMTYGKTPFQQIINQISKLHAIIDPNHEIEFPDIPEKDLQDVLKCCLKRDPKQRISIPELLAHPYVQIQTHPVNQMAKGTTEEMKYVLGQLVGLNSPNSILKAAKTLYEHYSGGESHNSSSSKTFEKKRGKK
# 4T1 [15] = experiment: Induction of DNA damage in 4T1 cells assessed as increase in gamma-H2AX level incubated for 2 hrs by Western blot analysis; assay type: functional, cell-based; settings: Mus musculus, dose <= 3.0 µM
# [16] = molecular target: Receptor-type tyrosine-protein kinase FLT3 (Homo sapiens) (UniProt P36888); experiment: Inhibition of human FLT3 at 0.1 uM by KINOMEscan assay relative to control
# 4T1 [17] = experiment: Induction of apoptosis in 4T1 cells assessed as necrotic cells at 1 uM incubated for 48 hrs by Annexin V-FITC/PI staining based flow cytometry (reference value: 0.20 %); assay type: functional, Mus musculus
# [18] = molecular target: Proto-oncogene tyrosine-protein kinase Src (Homo sapiens) (UniProt P12931); experiment: Inhibition of human cSRC at 1 uM by KINOMEscan assay relative to control
# Proto-oncogene tyrosine-protein kinase Src (Homo sapiens), sequence (P12931 2-536 limits assumed): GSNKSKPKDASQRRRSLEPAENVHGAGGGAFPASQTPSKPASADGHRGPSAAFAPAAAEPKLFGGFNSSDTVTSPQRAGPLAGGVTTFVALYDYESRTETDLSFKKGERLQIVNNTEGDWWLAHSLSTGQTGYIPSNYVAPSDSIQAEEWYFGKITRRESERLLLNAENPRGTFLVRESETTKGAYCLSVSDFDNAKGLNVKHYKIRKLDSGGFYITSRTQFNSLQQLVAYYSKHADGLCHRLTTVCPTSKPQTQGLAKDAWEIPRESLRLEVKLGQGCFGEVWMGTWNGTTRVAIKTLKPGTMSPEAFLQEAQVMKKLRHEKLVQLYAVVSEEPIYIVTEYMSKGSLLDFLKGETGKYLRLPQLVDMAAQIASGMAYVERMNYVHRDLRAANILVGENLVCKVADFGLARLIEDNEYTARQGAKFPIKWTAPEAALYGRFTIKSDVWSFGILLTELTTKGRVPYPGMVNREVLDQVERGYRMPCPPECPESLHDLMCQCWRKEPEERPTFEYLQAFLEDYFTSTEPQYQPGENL
# MCF7 [19] = experiment: Induction of apoptosis in human MCF7 cells assessed as late apoptotic cells at 1 uM incubated for 48 hrs by Annexin V-FITC/PI staining based flow cytometry (reference value: 0.63 %); assay type: functional
# MCF7 [20] = experiment: Induction of apoptosis in human MCF7 cells assessed as necrotic cells at 1 uM incubated for 48 hrs by Annexin V-FITC/PI staining based flow cytometry (reference value: 0.03 %); assay type: functional
# 4T1-Luc = experiment: Inhibition of cell proliferation in mouse 4T1-Luc cells xenografted in BALB/C mouse assessed as reduction in Ki-67 positive cells at 30 to 60 mg/kg, po qd treated for 15 days by IHC analysis; assay type: functional, organism-based; settings: dose 30-60 mg/kg, time 15.0 day
# [21] = molecular target: T1, Dual specificity protein kinase TTK (Homo sapiens); experiment: Inhibition of Mps1 phosphorylation in mouse 4T1-Luc cells xenografted in BALB/C mouse at 30 to 60 mg/kg, po qd treated for 15 days by IHC analysis; assay type: organism-based; settings: dose 30-60 mg/kg, time 15.0 day
# [22] = tested on: Tyrosine-protein kinase ABL1 (Homo sapiens), P00519 [T315I]; experiment: Inhibition of human Abl T315I mutant at 0.1 uM by KINOMEscan assay relative to control
# MCF7 [23] = experiment: Induction of apoptosis in human MCF7 cells assessed as early apoptotic cells at 1 uM incubated for 48 hrs by Annexin V-FITC/PI staining based flow cytometry (reference value: 1.19 %); assay type: functional
# ES-2 = experiment: Antiproliferative activity against human ES2 cells assessed as inhibition of cell viability upto 10 uM incubated for 72 hrs by MTT assay; assay type: functional, cell-based
# [24] = Toxicity in BALB/C mouse xenografted with mouse 4T1-Luc cells assessed as histological change in kidneys at 30 to 60 mg/kg, po qd treated for 15 days by H and E staining based analysis; assay type: organism-based; settings: in vivo, 360 h, dose 30-60 mg/kg, time 15 day
smiles,measurement,setting,value
CN1CCN(c2ccc(Nc3nc(-n4nc(N)c5ccccc54)c4cc[nH]c4n3)cc2)CC1,inhibition,4T1 [1],Dose-Dependent Effect
same,Activity,MCF7 [2],4.51%
same,Activity,4T1 [3],5.58%
same,inhibition,OVCAR-3,Active
same,inhibition,[4],100%
same,Activity,4T1 [5],Active
same,Activity,[6],Non-Toxic
same,Activity,MCF7 [7],Dose-Dependent Effect
same,IC50,MCF7 [8],370 nM
same,inhibition,[9],43%
same,inhibition,[10],92%
same,inhibition,[11],98%
same,Activity,MCF7 [12],Active
same,Activity,4T1 [13],5.41%
same,inhibition,[14],> 90%
same,Activity,4T1 [15],Dose-Dependent Effect
same,inhibition,[16],86%
same,Activity,4T1 [17],0.6%
same,inhibition,[18],96%
same,Activity,MCF7 [19],14.31%
same,Activity,MCF7 [20],0.26%
same,inhibition,4T1-Luc,Active
same,inhibition,[21],Active
same,inhibition,[22],40%
same,Activity,MCF7 [23],6.54%
same,inhibition,ES-2,Active
same,Activity,[24],Non-Toxic
